Details: Citrus sinensis

Structure (SMILES) | Distance Traveled [cm]
Cc1nnc(C)s1 [2,5-Dimethyl-1,3,4-thiadiazole] | 14
O=CC=Cc1ccccc1 [Cinnamaldehyde] | 12
C=CCSSSCC=C [Diallyl Trisulfide] | 26
C=CCSSCC=C [Diallyl disulfide] | 24
